PMC7071109, “Validation of an HPLC Method for the Simultaneous Quantification of Metabolic Reaction Products Catalysed by CYP2E1 Enzyme Activity: Inhibitory Effect of Cytochrome P450 Enzyme CYP2E1 by Salicylic Acid in Rat Liver Microsomes” (Molecules, 2020)

Biological target: CYP2E1 (Rattus norvegicus, UniProt P05182)
Experiment: inhibition of chlorzoxazone 6-hydroxylation in rat liver microsomes, HPLC
Format: biochemical

Sequence of CYP2E1 (P05182 2-493): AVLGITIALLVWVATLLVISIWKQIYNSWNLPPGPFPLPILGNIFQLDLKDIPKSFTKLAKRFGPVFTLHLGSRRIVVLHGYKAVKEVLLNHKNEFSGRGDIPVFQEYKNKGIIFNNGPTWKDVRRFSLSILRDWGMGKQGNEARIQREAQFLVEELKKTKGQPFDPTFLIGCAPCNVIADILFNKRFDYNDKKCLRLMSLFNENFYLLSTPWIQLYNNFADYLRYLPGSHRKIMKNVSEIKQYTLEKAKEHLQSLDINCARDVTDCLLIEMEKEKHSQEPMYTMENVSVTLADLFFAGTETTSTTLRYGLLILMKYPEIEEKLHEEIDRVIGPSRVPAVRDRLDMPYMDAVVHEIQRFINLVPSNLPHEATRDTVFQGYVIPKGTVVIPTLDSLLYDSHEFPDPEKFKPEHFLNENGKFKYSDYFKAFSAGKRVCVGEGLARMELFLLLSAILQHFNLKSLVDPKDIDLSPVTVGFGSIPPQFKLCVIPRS

**Q.** For `O=C(O)c1ccccc1O` [salicylic acid], which Ki is on record?
**A.** Its Ki is 83.6 ± 2.73 µM.
